Patent US20050250677A1, “Glycopeptide antibiotic derivatives” (priority 2002, published 2005)
Like-named read-outs stand apart in the source and are kept apart here.

Tests used:
[1] = test system: HEL cells; details: read-out: CC50 (HEL); HEL cells; anti-VZV table
[2] = test system: VZV (wild-type strains); experiment: Anti-VZV assay (wild-type strains): virus-induced cytopathicity in HEL cell cultures; type: cell-based, varicella-zoster virus; details: HEL cell cultures
[3] = test system: HEL cells; details: anti-VZV table
[4] = test system: HIV-2(ROD); experiment: Inhibition of HIV-2 (ROD)-induced cytopathicity (giant cell formation) in CEM cells; type: cell-based; details: read-out: EC50 HIV-2 (concentration required to inhibit HIV-induced giant cell formation by 50%); HIV-2, CEM cell cultures
Protocol: (§1) A variety of glycopeptide antibiotic derivatives of vancomycin, eremomycin and teicoplanin including their aglycon derivatives were evaluated for their inhibitory activity against HIV-1 (IIIB) and HIV-2(ROD) in CEM cell cultures.

[5] = test system: HIV-1 (IIIB); experiment: Inhibition of HIV-1 (IIIB)-induced cytopathicity (giant cell formation) in CEM cells; type: cell-based; details: read-out: EC50 HIV-1 (concentration required to inhibit HIV-induced giant cell formation by 50%); HIV-1, CEM cell cultures
Protocol: as §1

[6] = test system: murine leukemia L1210; experiment: Cytostatic activity assay, L1210 cells; type: cell-based; details: read-out: IC50 L1210 (compound concentration required to inhibit tumor cell proliferation by 50%)
[7] = test system: human lymphocyte CEM; experiment: Cytostatic activity assay, CEM cells; type: cell-based; details: read-out: IC50 CEM (compound concentration required to inhibit tumor cell proliferation by 50%)
[8] = test system: human lymphocyte Molt4/clone 8; experiment: Cytostatic activity assay, Molt4/clone 8 cells; type: cell-based; details: read-out: IC50 Molt4/C8 (compound concentration required to inhibit tumor cell proliferation by 50%)
[9] = VZV strain OKA, read-out: EC50 VZV (OKA)
[10] = VZV strain YS, read-out: EC50 VZV (YS)

Row | Compound | CC50 [1] [µM] | EC50 [2, 9] [µM] | EC50 [2, 10] [µM] | MTC (HEL) [3] | EC50 [4] [µM] | EC50 [5] [µM] | IC50 [6] [µM] | IC50 [7] [µM] | IC50 [8] [µM]
1 | CCCCc1ccc(CNC(=O)C2NC(=O)C3NC(=O)C(NC(=O)C4NC(=O)C(CC(N)=O)NC(=O)C(NC(=O)C(CC(C)C)NC)C(O)c5ccc(c(Cl)c5)Oc5cc4cc(c5OC4OC(CO)C(O)C(O)C4OC4CC(C)(N)C(O)C(C)O4)Oc4ccc(cc4)C3OC3CC(C)(N)C(O)C(C)O3)c3ccc(O)c(c3)-c3c(O)cc(O)cc32)cc1 (centres unmarked) [Compound 76] | 98 | 2.7 | > 2 | ≧5-20 μM | – | – | – | – | –
2 | CCCCc1ccc(CNC2C(=O)NC3Cc4ccc(c(Cl)c4)Oc4cc5cc(c4O)Oc4ccc(cc4Cl)C(O)C4NC(=O)C(NC(=O)C5NC(=O)C(NC3=O)c3cc(O)cc(c3)Oc3cc2ccc3O)c2ccc(O)c(c2)-c2c(cc(O)c(CN3CCN(Cc5ccc(-c6ccccc6)cc5)CC3)c2O)C(C(=O)N2CCN(Cc3ccc(-c5ccccc5)cc3)CC2)NC4=O)cc1 (centres unmarked) [Compound 123] | > 50 | 2.8 | – | ≧5-200 μM | – | – | – | – | –
3 | CCCCCCCCCC[N+]1(C)CCN(Cc2c(O)cc3c(c2O)-c2cc(ccc2O)C2NC(=O)C4NC(=O)C5NC(=O)C(Cc6ccc(c(Cl)c6)Oc6cc4cc(c6O)Oc4ccc(cc4Cl)C(O)C(NC2=O)C(=O)NC3C(=O)NCCCN(C)C)NC(=O)C(N)c2ccc(O)c(c2)Oc2cc(O)cc5c2)CC1 (centres unmarked) [Compound 38] | – | – | – | – | 10 | 2.1 ± 0.92 | 51 ± 9 | > 100 | 91 ± 13
4 | CCCCOc1ccc(CNC2C(Oc3c4cc5cc3Oc3ccc(cc3Cl)C(O)C3NC(=O)C(NC(=O)C5NC(=O)C5NC(=O)C(Cc6ccc(cc6)O4)NC(=O)C(N(C)Cc4ccc(OCCCC)cc4)c4ccc(O)c(c4)Oc4cc(O)c(Cl)c5c4)c4ccc(O)c(c4)-c4c(O)cc(O)cc4C(C(=O)NCCCN(C)C)NC3=O)OC(C(=O)NCCCN(C)C)C(O)C2O)cc1 (centres unmarked) [Compound 11] | – | – | – | – | > 10 | 5 ± 0.7 | 20 ± 7.5 | 80 ± 6 | 18 ± 2.5
5 | CCCCc1ccc(CNCC(=O)N2CCN(Cc3c(O)cc4c(c3O)-c3cc(ccc3O)C3NC(=O)C5NC(=O)C6NC(=O)C(Cc7ccc(c(Cl)c7)Oc7cc5cc(c7O)Oc5ccc(cc5Cl)C(O)C(NC3=O)C(=O)NC4C(=O)O)NC(=O)C(N)c3ccc(O)c(c3)Oc3cc(O)cc6c3)CC2)cc1 (centres unmarked) [Compound 142] | > 50 | 20 | – | 50 µM | – | – | – | – | –
6 | Teicoplanin [reference compound] | – | – | – | – | 100 | 18 ± 3.5 | > 500 | > 500 | > 500
7 | C[N+](C)(C)CCCNC(=O)C1NC(=O)C2NC(=O)C(NC(=O)C3NC(=O)C4NC(=O)C(Cc5ccc(c(Cl)c5)Oc5cc3cc(c5O)Oc3ccc(cc3Cl)C2O)NC(=O)C(N)c2ccc(O)c(c2)Oc2cc(O)cc4c2)c2ccc(O)c(c2)-c2c1cc(O)c(CN1CCN(Cc3ccc(-c4ccccc4)cc3)CC1)c2O (centres unmarked) [Compound 29] | – | – | – | – | 22 ± 3.5 | 4.5 ± 0.7 | 26 ± 8.1 | > 250 | 35 ± 8.2
8 | CCCCCCCCCC(=O)N1CCN(Cc2c(O)cc3c(c2O)-c2cc(ccc2O)C2NC(=O)C4NC(=O)C5NC(=O)C(Cc6ccc(c(Cl)c6)Oc6cc4cc(c6O)Oc4ccc(cc4Cl)C(O)C(NC2=O)C(=O)NC3C(=O)O)NC(=O)C(N)c2ccc(O)c(c2)Oc2cc(O)cc5c2)CC1 (centres unmarked) [Compound 141] | > 50 | 7.1 | – | 50 µM | – | – | – | – | –
9 | NC1C(=O)NC2Cc3ccc(c(Cl)c3)Oc3cc4cc(c3O)Oc3ccc(cc3Cl)C(O)C3NC(=O)C(NC(=O)C4NC(=O)C(NC2=O)c2cc(O)cc(c2)Oc2cc1ccc2O)c1ccc(O)c(c1)-c1c(cc(O)c(CN2CCN(Cc4ccc(Cl)cc4)CC2)c1O)C(C(=O)O)NC3=O (centres unmarked) [Compound 119] | > 50 | 5 | – | 20 to 400 µM | – | – | – | – | –
10 | CCCCc1ccc(CNCc2c(O)cc3c(c2O)-c2cc(ccc2O)C2NC(=O)C4NC(=O)C5NC(=O)C(Cc6ccc(c(Cl)c6)Oc6cc4cc(c6O)Oc4ccc(cc4Cl)C(O)C(NC2=O)C(=O)NC3C(=O)O)NC(=O)C(N)c2ccc(O)c(c2)Oc2cc(O)cc5c2)cc1 (centres unmarked) [Compound 136] | > 50 | 3.1 | 4.1 | 20 to 50 µM | – | – | – | – | –
11 | NC1C(=O)NC2Cc3ccc(c(Cl)c3)Oc3cc4cc(c3OCc3ccc(-c5ccccc5)cc3)Oc3ccc(cc3Cl)C(O)C3NC(=O)C(NC(=O)C4NC(=O)C(NC2=O)c2cc(O)cc(c2)Oc2cc1ccc2O)c1ccc(O)c(c1)-c1c(O)cc(O)cc1C(C(=O)O)NC3=O (centres unmarked) [Compound 128] | 48 | 1.8 | 0.8 | 20 µM | – | – | – | – | –
12 | CNC(=O)C1NC(=O)C2NC(=O)C(NC(=O)C3NC(=O)C4NC(=O)C(Cc5ccc(c(Cl)c5)Oc5cc3cc(c5O)Oc3ccc(cc3Cl)C2O)NC(=O)C(N)c2ccc(O)c(c2)Oc2cc(O)cc4c2)c2ccc(O)c(c2)-c2c(O)cc(O)cc21 (centres unmarked) [Compound 120] | > 200 | 9 | 10 | ≧20-200 μM | – | – | – | – | –
13 | CN(Cc1ccc(-c2ccccc2)cc1)Cc1c(O)cc2c(c1O)-c1cc(ccc1O)C1NC(=O)C3NC(=O)C4NC(=O)C(Cc5ccc(c(Cl)c5)Oc5cc3cc(c5O)Oc3ccc(cc3Cl)C(O)C(NC1=O)C(=O)NC2C(=O)O)NC(=O)C(N)c1ccc(O)c(c1)Oc1cc(O)cc4c1 (centres unmarked) [Compound 117] | > 50 | 2.9 | 2.7 | ≧5-80 μM | – | – | – | – | –
14 | CCCCCCCCCCNCc1c(O)cc2c(c1O)-c1cc(ccc1O)C1NC(=O)C3NC(=O)C4NC(=O)C(Cc5ccc(c(Cl)c5)Oc5cc3cc(c5O)Oc3ccc(cc3Cl)C(O)C(NC1=O)C(=O)NC2C(=O)NCCCN(C)C)NC(=O)C(NC(=O)C(N)CCCCN)c1ccc(O)c(c1)Oc1cc(O)cc4c1 (centres unmarked) [Compound 121] | 40 | 2.3 | 3.1 | ≧5-20 μM | – | – | – | – | –
15 | NC1C(=O)NC2Cc3ccc(c(Cl)c3)Oc3cc4cc(c3O)Oc3ccc(cc3Cl)C(O)C3NC(=O)C(NC(=O)C4NC(=O)C(NC2=O)c2cc(O)cc(c2)Oc2cc1ccc2O)c1ccc(O)c(c1)-c1c(O)cc(O)cc1C(C(=O)N1CCN(N=Cc2ccc(Cl)cc2)CC1)NC3=O (centres unmarked) [Compound 113] | > 50 | 0.68 | 0.42 | ≧5-20 μM | – | – | – | – | –
16 | CCCCc1ccc(CNCC(=O)N2CCN(Cc3c(O)cc4c(c3O)-c3cc(ccc3O)C3NC(=O)C5NC(=O)C6NC(=O)C(Cc7ccc(c(Cl)c7)Oc7cc5cc(c7O)Oc5ccc(cc5Cl)C(O)C(NC3=O)C(=O)NC4C(=O)NC)NC(=O)C(N)c3ccc(O)c(c3)Oc3cc(O)cc6c3)CC2)cc1 (centres unmarked) [Compound 143] | > 50 | 2.8 | 2.6 | ≧20-50 μM | – | – | – | – | –
17 | CCCCCCCNC(=O)C1NC(=O)C2NC(=O)C(NC(=O)C3NC(=O)C(CC(N)=O)NC(=O)C(NC(=O)C(CC(C)C)NC)C(O)c4ccc(c(Cl)c4)Oc4cc3cc(c4OC3OC(CO)C(O)C(O)C3OC3CC(C)(N)C(O)C(C)O3)Oc3ccc(cc3)C2OC2CC(C)(N)C(O)C(C)O2)c2ccc(O)c(c2)-c2c(O)cc(O)cc21 (centres unmarked) [Compound 77] | 129 | 7 | 5 | ≧20-50 μM | – | – | – | – | –
18 | CCCCc1ccc(CNC2C(Oc3c4cc5cc3Oc3ccc(cc3Cl)C(O)C3NC(=O)C(NC(=O)C5NC(=O)C5NC(=O)C(Cc6ccc(cc6)O4)NC(=O)C(NC)c4ccc(O)c(c4)Oc4cc(O)c(Cl)c5c4)c4ccc(O)c(c4)-c4c(cc(O)c(CN5CCN(Cc6ccc(-c7ccccc7)cc6)CC5)c4O)C(C(=O)O)NC3=O)OC(C(=O)O)C(O)C2O)cc1 (centres unmarked) [Compound 93] | – | – | – | – | 22 | 3.5 | – | 81 | –
19 | CCCCN(CCCC)c1ccc(CNC(=O)C2NC(=O)C3NC(=O)C(NC(=O)C4NC(=O)C5NC(=O)C(Cc6ccc(c(Cl)c6)Oc6cc4cc(c6O)Oc4ccc(cc4Cl)C3O)NC(=O)C(N)c3ccc(O)c(c3)Oc3cc(O)cc5c3)c3ccc(O)c(c3)-c3c(O)cc(O)cc32)cc1 (centres unmarked) [Compound 137] | 98 | 0.22 | 0.43 | >5 to 20 µM | – | – | – | – | –
20 | CNCc1c(O)cc2c(c1O)-c1cc(ccc1O)C1NC(=O)C3NC(=O)C4NC(=O)C(Cc5ccc(c(Cl)c5)Oc5cc3cc(c5O)Oc3ccc(cc3Cl)C(O)C(NC1=O)C(=O)NC2C(=O)O)NC(=O)C(NC(=O)OC(C)(C)C)c1ccc(O)c(c1)Oc1cc(O)cc4c1 (centres unmarked) [Compound 140] | > 50 | 13 | – | ≧50-200 μM | – | – | – | – | –
21 | CCCCCCCCCC[N+](C)(C)CCCNCc1c(O)cc2c(c1O)-c1cc(ccc1O)C1NC(=O)C3NC(=O)C4NC(=O)C(Cc5ccc(cc5)Oc5cc3cc(c5OC3OC(C(=O)O)C(O)C(O)C3N)Oc3ccc(cc3Cl)C(O)C(NC1=O)C(=O)NC2C(=O)O)NC(=O)C(NC)c1ccc(O)c(c1)Oc1cc(O)c(Cl)c4c1 (centres unmarked) [Compound 95] | – | – | – | – | ≥ 20 | 3.5 | – | 92 | –
22 | O=C1NC2C(=O)NC3C(=O)NC4C(=O)NC(C(=O)NC(C(=O)O)c5cc(O)cc(O)c5-c5cc4ccc5O)C(O)c4ccc(c(Cl)c4)Oc4cc3cc(c4O)Oc3ccc(cc3Cl)CC1NC(=O)C(NC(=O)C13CC4CC(CC(C4)C1)C3)c1ccc(O)c(c1)Oc1cc(O)cc2c1 (centres unmarked) [Compound 164] | – | – | – | – | 4 | 10 | – | – | –
